Test results as given in patent US5627017A, “Low melting point ionizable epoxy scavengers for residual magenta couplers” (Eastman Kodak Company, priority 1995, dated 1997).

Key:
[1] = logP (logarithm of the octanol/water partition coefficient); type: physicochemical
Excerpt: Hydrophobic photographic additives are conveniently incorporated in a hydrophilic colloid layer of a photographic element by dissolving the hydrophobic additive in an organic solvent and then dispersing the organic solution in an aqueous solution to form a homogenized dispersion. […] The low hydrophobicity is essential to achieve efficient post-process migration of these compounds from the adjacent non-imaging layers into the magenta imaging layer. The combination of low hydrophobicity and high melting point makes it difficult to prepare stable dispersions of these compounds by homogenization in an aqueous solution even if relatively large amounts of water-immiscible organic solvent is used to dissolve the compounds. The exemplified compounds are accordingly dispersed in the examples of U.S. Ser. No. 08/255,512 by a solid particle dispersion process. In this method size reduction of the epoxy compound is achieved by attrition with media such as zirconia beads instead of by shearing action on a liquid solution. The solid particle dispersion process is relatively inefficient compared to homogenization and often requires several days of grinding in order to achieve the desired level of size reduction.

[2] = Dispersion stability in constant temperature bath at 45 °C; type: physicochemical; conditions: 3.0 g epoxide with 1.0 g tri(2-ethylhexyl) phosphate in gelatin/Alkanol XC, E1 disintegrated with significant settling, SI-4 no evidence of settling or macroscopic coagulation
Procedure: 3.0 grams of E1 was combined with 1.0 gram of the water-immiscible organic solvent tri(2-ethylhexyl) phosphate. The mixture was heated until the oil phase was homogeneous. 26.0 grams of a 12% w/w solution of Type IV gelatin in water was combined with 43.8 grams of water and 4.0 grams of Alkanol XC to constitute the aqueous phase. The aqueous phase was maintained at 70° C. The oil phase was combined with the aqueous phase while stirring. The mixture was then passed twice through the microfluidizer at a pressure of 10,000 psi to obtain the dispersion.
Both dispersions were placed in a constant temperature bath set at 45° C.

logP [1] | time at which dispersion disintegrated / showed settling or macroscopic coagulation [2] | SMILES
4.3 | > 12 h | O=C(CCCCCCCCC1CO1)Oc1ccc(NS(=O)(=O)c2ccccc2)cc1 (stereo not shown) [SI-4]
4.5 | 6 h | O=C(CCCCCCCCC1CO1)Oc1ccc(NS(=O)(=O)c2ccc(F)cc2F)cc1 (stereo not shown) [E1]
